In ChEMBL document CHEMBL5532756, “Phenylthiazoles with potent & optimum selectivity toward Clostridium difficile” (RSC Med Chem, 2024):
In brackets after ≈: the same amount, converted by molar mass.

What was measured:
Candida albicans = test: Antimicrobial activity against Candida albicans ATCC 64124; assay type: functional
Escherichia coli [1] = test: Antimicrobial activity against Escherichia coli JW55031 harboring TolC mutant; assay type: functional
Staphylococcus aureus = test: Antimicrobial activity against methicillin-resistant Staphylococcus aureus USA300; assay type: functional
Neisseria gonorrhoeae = test: Antimicrobial activity against Neisseria gonorrhoeae 194; assay type: functional
Clostridioides difficile [2] = test: Antimicrobial activity against Clostridioides difficile ATCC BAA-1870; assay type: functional
Escherichia coli [3] = test: Antimicrobial activity against Escherichia coli BW25113; assay type: functional
Lactobacillus crispatus = test: Antibacterial activity against Lactobacillus crispatus HM-420; assay type: functional
Lactobacillus gasseri = test: Antibacterial activity against Lactobacillus gasseri HM-400; assay type: functional
Bacteroides fragilis [4] = test: Antibacterial activity against Bacteroides fragilis HM-709; assay type: functional
Lacticaseibacillus casei = test: Antibacterial activity against Lactobacillus casei ATCC 334; assay type: functional
Phocaeicola dorei = test: Antibacterial activity against Bacteroides dorei HM-719; assay type: functional
Clostridioides difficile [5] = test: Antibacterial activity against Clostridioides difficile ATCC 43598; assay type: functional
Bifidobacterium breve [6] = test: Antibacterial activity against Bifidobacterium breve HM-411; assay type: functional
[7] = Antibacterial activity against Bifidobacterium longum subsp. Longum HM-845; assay type: functional
Bacteroides fragilis [8] = test: Antibacterial activity against Bacteroides fragilis HM-714; assay type: functional
Bifidobacterium breve [9] = test: Antibacterial activity against Bifidobacterium breve HM-1120; assay type: functional
Clostridioides difficile [10] = test: Antibacterial activity against Clostridioides difficile I 11; assay type: functional
Clostridioides difficile [11] = test: Antibacterial activity against Clostridioides difficile I 13; assay type: functional
Clostridioides difficile [12] = test: Antibacterial activity against Clostridioides difficile P7; assay type: functional
HRT-18 cell line = test: Cytotoxicity against human HRT-18 cell line assessed as cell viability upto 64 ug/ml; assay type: toxicity, cell-based; conditions: dose < 64 µg/ml
[13] = Cytotoxicity against African green monkey Vero cells assessed as cell viability at 0.5 to 64 ug/ml relative to control; assay type: toxicity, cell-based; conditions: chlorocebus sabaeus, at 0.5 to 64 µg/mL, dose 0.5-64 µg/ml, read-out: Activity

Structure (SMILES) | MIC (Candida albicans) [µg/mL] | MIC (Escherichia coli [1]) [µg/mL] | MIC (Staphylococcus aureus) [µg/mL] | MIC (Neisseria gonorrhoeae) [µg/mL] | MIC (Clostridioides difficile [2]) [µg/mL] | MIC (Escherichia coli [3]) [µg/mL] | also measured
Cc1nc(-c2ccc3ccccc3c2)sc1-c1ccnc(NC[C@H](O)CO)n1 | > 64 | > 64 | > 64 | > 64 | 64 (≈ 163 µM) | > 64 | 
Cc1nc(-c2ccc3ccccc3c2)sc1-c1ccnc(NCCCN)n1 | > 64 | > 64 | > 64 | > 64 | 64 (≈ 170 µM) | > 64 | 
Cc1nc(-c2ccc3ccccc3c2)sc1-c1ccnc(N2CCC(N)C2)n1 (stereo unspecified) | 8 (≈ 20.6 µM) | > 64 | 8 (≈ 20.6 µM) | > 64 | 16 (≈ 41.3 µM) | > 64 | 
CN[C@H](CC(C)C)C(=O)N[C@H]1C(=O)N[C@@H](CC(N)=O)C(=O)N[C@H]2C(=O)N[C@H]3C(=O)N[C@H](C(=O)N[C@H](C(=O)O)c4cc(O)cc(O)c4-c4cc3ccc4O)[C@H](O)c3ccc(c(Cl)c3)Oc3cc2cc(c3O[C@@H]2O[C@H](CO)[C@@H](O)[C@H](O)[C@H]2O[C@H]2C[C@](C)(N)[C@H](O)[C@H](C)O2)Oc2ccc(cc2Cl)[C@H]1O [VANCOMYCIN] |  |  |  |  | 1 (≈ 0.69 µM) |  | MIC (Lactobacillus crispatus): 0.5 µg/mL (≈ 0.345 µM); MIC (Lactobacillus gasseri): > 8 µg/mL; MIC (Bacteroides fragilis [4]): 8 µg/mL (≈ 5.52 µM); MIC (Lacticaseibacillus casei): > 8 µg/mL; MIC (Phocaeicola dorei): 8 µg/mL (≈ 5.52 µM); MIC (Clostridioides difficile [5]): 0.5 µg/mL (≈ 0.345 µM); MIC (Bifidobacterium breve [6]): 0.25 µg/mL (≈ 0.173 µM); MIC [7]: 0.125 µg/mL (≈ 0.0863 µM); MIC (Bacteroides fragilis [8]): 8 µg/mL (≈ 5.52 µM); MIC (Bifidobacterium breve [9]): 0.25 µg/mL (≈ 0.173 µM); MIC (Clostridioides difficile [10]): 0.5 µg/mL (≈ 0.345 µM); MIC (Clostridioides difficile [11]): 0.5 µg/mL (≈ 0.345 µM); MIC (Clostridioides difficile [12]): 0.5 µg/mL (≈ 0.345 µM)
Cc1nc(-c2ccc3ccccc3c2)sc1-c1ccnc(NC[C@@H](O)CO)n1 | > 64 | > 64 | > 64 | > 64 | 64 (≈ 163 µM) | > 64 | 
Cc1nc(-c2ccc3ccccc3c2)sc1-c1ccnc(NCC(=N)N)n1 | > 64 | > 64 | > 64 | > 64 | 32 (≈ 85.5 µM) | > 64 | 
Cc1nc(-c2ccc3ccccc3c2)sc1-c1ccnc(N2CC[C@H](N(C)C)C2)n1 | 32 (≈ 77 µM) | > 64 | 32 (≈ 77 µM) | > 64 | 32 (≈ 77 µM) | > 64 | 
Cc1nc(-c2ccc3ccccc3c2)sc1-c1ccnc(N2CCC[C@H]2CO)n1 | > 64 | > 64 | > 64 | > 64 | 64 (≈ 159 µM) | > 64 | 
Cc1nc(-c2ccc3ccccc3c2)sc1-c1ccnc(N[C@@H]2CCCC[C@@H]2N)n1 (relative stereo) | 8 (≈ 19.3 µM) | 8 (≈ 19.3 µM) | 4 (≈ 9.63 µM) | 32 (≈ 77 µM) | 8 (≈ 19.3 µM) | > 64 | 
Cc1nc(-c2ccc3ccccc3c2)sc1-c1ccnc(N2CC[C@@H](N(C)C)C2)n1 | 64 (≈ 154 µM) | > 64 | 32 (≈ 77 µM) | > 64 | 64 (≈ 154 µM) | 64 (≈ 154 µM) | 
Cc1nc(-c2ccc3ccccc3c2)sc1-c1ccnc(NC(CO)CO)n1 | > 64 | > 64 | > 64 | 64 (≈ 163 µM) | 64 (≈ 163 µM) | > 64 | 
Cc1nc(-c2ccc3ccccc3c2)sc1-c1ccnc(N2CCC[C@@H]2C(N)=O)n1 | > 64 | 64 (≈ 154 µM) | > 64 | > 64 | 64 (≈ 154 µM) | > 64 | 
Cc1nc(-c2ccc3ccccc3c2)sc1-c1ccnc(-c2ccccn2)n1 | > 64 | > 64 | > 64 | > 64 | 0.03 (≈ 0.0788 µM) | > 64 | Activity (HRT-18 cell line): Non-Toxic; MIC (Lactobacillus crispatus): > 64 µg/mL; MIC (Lactobacillus gasseri): > 64 µg/mL; MIC (Bacteroides fragilis [4]): > 64 µg/mL; MIC (Lacticaseibacillus casei): > 64 µg/mL; MIC (Phocaeicola dorei): > 64 µg/mL; MIC (Clostridioides difficile [5]): 0.125 µg/mL (≈ 0.329 µM); MIC (Bifidobacterium breve [6]): > 64 µg/mL; MIC [7]: > 64 µg/mL; MIC (Bacteroides fragilis [8]): > 64 µg/mL; MIC (Bifidobacterium breve [9]): > 64 µg/mL; MIC (Clostridioides difficile [10]): 0.03 µg/mL (≈ 0.0788 µM); viability [13]: 100%; MIC (Clostridioides difficile [11]): 0.06 µg/mL (≈ 0.158 µM); MIC (Clostridioides difficile [12]): 0.125 µg/mL (≈ 0.329 µM)
